The source of these data is patent publication US20110230476A1, “PI3 KINASE INHIBITORS AND USES THEREOF” (AVILA THERAPEUTICS, INC., priority 2009, published 2011).

The target of one assay is T1, PI3Kα (p110α/p85α) (Homo sapiens, UniProt P42336).
T1 construct: purchased BPS Bioscience (San Diego, Calif.) or Millipore (Billerica, Mass.)
Nature of the assay: HTRF assay, potency against active PI3Kα. Format: biochemical. The conditions noted are these: for IC50: HTRF, [ATP]=50 μM, [di-C8-PIP2]=10 μM, 30 min pre-incubation, read-out: PI3Kα Inhibition. In a few lines:
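IC50 came from a variable-slope fit of % inhibition, calculated from the HTRF emission ratio relative to wells with and without enzyme. Reactions with the active enzyme complex ran 30-60 minutes at 25 °C after ATP addition before stop and detection reagents.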
(TR-FRET usually uses a lanthanide donor and a delayed reading to cut background.)

A further assay deals with Phospho-Akt(Ser473). Kind of assay: Dose response in SKOV3 cells as determined by in-cell Western. The conditions noted are these: Homo sapiens, SK-OV-3; SKOV3 cells, 1 hr; read-out: pAKT Inhibition in cell Western. The class given is cell-based. In a few lines: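 SKOV3 cells treated with compound for 1 hr, then formaldehyde-fixed, permeabilised and stained overnight for phospho-Akt(Ser473) with anti-tubulin as a reference. Infrared secondary antibodies read at 680 and 800 nm channels by in-cell Western imaging.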

The next assay deals with T2, PI3Kγ (p120γ) (Homo sapiens, UniProt P48736).
T2 construct: purchased BPS Bioscience (San Diego, Calif.) or Millipore (Billerica, Mass.)
Kind of assay: HTRF assay, potency against active PI3Kγ. Format: biochemical. The conditions noted are these: [ATP]=50 μM, [di-C8-PIP2]=10 μM, 30 min pre-incubation, read-out: PI3Kγ Inhibition. The essentials: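 End-point competition HTRF: enzyme (p110β/p85α 0.75 nM; p120γ 2-2.5 nM) with 10 μM di-C8-PIP2 pre-incubated 30 min at 25° C with compound, then 50 μM ATP added for 30-60 min at 25° C. Stopped, detected after 1 and 18 h; IC50 from variable-slope fit.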

In the next assay the test system is SKOV3 cells. Kind of assay: GI50 determinations in SKOV3 cells. Format: cell-based. The conditions noted are these: Homo sapiens, SK-OV-3; SKOV3 cells, 96 hours, Cell Titer Glo. The method, then:
GI50 Determinations in SKOV3 Cells
A standard curve ranging from 10,000 to 50,000 cells was set up in a separate plate and allowed to adhere to the plate for 4-6 hours, at which time the plate was developed using Cell Titer-Glow (Promega, Madison, Wis.) according to manufacturer's instructions.
The next morning, 3-fold compound dilutions ranging from 10,000 nM to 40 nM were prepared in Proliferation Media containing 1% DMSO. 20 ul of each dilution was added to the SKOV3 cells plated the previous day resulting in a dose response curve from 1000 nM to 4 nM. The cells were incubated for 96 hours and then developed with Cell Titer Glo.
The cell numbers at the end of the assay were determined using the standard curve generated at the start of the assay. Growth inhibition was calculated using the following formulas and GI50s were determined by plotting the % growth inhibition vs. Log compound concentration in GraphPad.
%growth=100×(T−T0)/(C−T0)
T=Cell Number at end of assay T0=Cell Number at start of assay (5000) C=Number of cells in DMSO controls at end of assay
%growth inhibition=100−%growth

For assay [1], the target named is T3, PI3Kα (Homo sapiens, UniProt P42336). Nature of the assay: Mass spectrometry of intact PI3Kα (Johns Hopkins), 3 hr incubation. Format: binding. Details: Johns Hopkins. The conditions noted are these: 10× fold excess of compound, MALDI. Here is the method:
(§1) Mass Spectrometry for PI3K
Intact PI3Kα (Johns Hopkins) was incubated for 3 hr at a 10× fold excess of II-a-45 or II-a-49 to protein. Aliquots (3 μL) of the samples were diluted with 10 μL of 0.1% TFA prior to micro C4 ZipTipping directly onto the MALDI target using Sinapinic acid as the desorption matrix (10 mg/ml in 0.1% TFA:Acetonitrile 50:50).
Target sequence in this assay (P42336 whole entry): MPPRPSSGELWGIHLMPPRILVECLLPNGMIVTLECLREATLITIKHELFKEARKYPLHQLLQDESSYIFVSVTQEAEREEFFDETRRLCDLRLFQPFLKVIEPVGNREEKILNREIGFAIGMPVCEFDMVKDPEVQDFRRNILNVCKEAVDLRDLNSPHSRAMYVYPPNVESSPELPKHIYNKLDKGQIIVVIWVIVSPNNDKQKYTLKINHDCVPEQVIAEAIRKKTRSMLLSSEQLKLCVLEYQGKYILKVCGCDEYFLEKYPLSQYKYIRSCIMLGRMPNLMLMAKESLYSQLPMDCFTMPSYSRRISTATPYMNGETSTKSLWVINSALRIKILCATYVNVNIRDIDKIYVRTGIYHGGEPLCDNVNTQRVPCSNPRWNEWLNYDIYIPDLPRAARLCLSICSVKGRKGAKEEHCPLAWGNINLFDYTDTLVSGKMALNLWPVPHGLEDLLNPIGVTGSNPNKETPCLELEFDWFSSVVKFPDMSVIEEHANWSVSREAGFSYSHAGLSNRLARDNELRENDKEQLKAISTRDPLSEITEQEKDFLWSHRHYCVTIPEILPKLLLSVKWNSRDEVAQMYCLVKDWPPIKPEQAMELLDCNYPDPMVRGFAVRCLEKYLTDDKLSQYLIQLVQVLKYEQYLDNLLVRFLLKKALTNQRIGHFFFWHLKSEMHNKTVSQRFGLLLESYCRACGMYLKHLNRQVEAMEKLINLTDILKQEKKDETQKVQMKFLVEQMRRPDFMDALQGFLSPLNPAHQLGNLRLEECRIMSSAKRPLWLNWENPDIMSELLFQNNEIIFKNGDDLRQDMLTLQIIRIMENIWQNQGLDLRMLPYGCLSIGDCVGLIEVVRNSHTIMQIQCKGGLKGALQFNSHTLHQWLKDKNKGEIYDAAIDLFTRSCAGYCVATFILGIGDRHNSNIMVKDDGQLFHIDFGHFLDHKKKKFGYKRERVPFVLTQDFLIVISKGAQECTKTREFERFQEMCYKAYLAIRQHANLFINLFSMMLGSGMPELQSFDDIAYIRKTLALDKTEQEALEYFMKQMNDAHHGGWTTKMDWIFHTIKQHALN
Target sequence in this assay (P27986 322-600 partner limits assumed): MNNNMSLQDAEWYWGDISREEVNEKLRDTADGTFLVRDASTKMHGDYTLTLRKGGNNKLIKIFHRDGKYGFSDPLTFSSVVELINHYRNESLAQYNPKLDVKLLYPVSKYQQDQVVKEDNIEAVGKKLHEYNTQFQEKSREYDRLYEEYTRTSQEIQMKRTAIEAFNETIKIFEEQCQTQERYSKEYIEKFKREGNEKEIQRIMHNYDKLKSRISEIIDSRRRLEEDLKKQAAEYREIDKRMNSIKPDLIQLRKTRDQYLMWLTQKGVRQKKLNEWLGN

In the next assay the target is T4, PI3Kβ (p110β/p85α) (Homo sapiens, UniProt P42338).
T4 construct: purchased BPS Bioscience (San Diego, Calif.) or Millipore (Billerica, Mass.)
Nature of the assay: HTRF assay, potency against active PI3Kβ. Format: biochemical. The conditions noted are these: [ATP]=50 μM, [di-C8-PIP2]=10 μM, 30 min pre-incubation, read-out: PI3Kβ Inhibition. Here is the method: Homogeneous Time Resolved Fluorescence (HTRF) Assay Protocol for Potency Assessment Against the Active Forms of PI3Kα, PI3Kβ, and PI3Kγ
The mechanics of the assay platform are best described by the vendor (Millipore, Billerica, Mass.) on their website at the following URL: www.millipore.com/coa/tech1/74jt4z.
Briefly, Stop solution (Stop A, #33-007 and Stop B, #33-009; 3:1 ratio) and Detection Mix (from DMC, #33-015 with DMA, #33-011 and DMB, #33-013; 18:1:1 ratio) were prepared as recommended by the manufacturer about 2 hrs prior to use. […] Lipid kinase reactions were started with the addition of 5 μL of ATP solution, mixed for 15 sec on a rotary plate shaker and incubated for 30-60 minutes at 25° C. Next, reactions were stopped with a 5 μL addition of Stop solution immediately followed by a 5 μL volume of Detection Mix. […] At the conclusion of each assay, the HTRF ratio from fluorescence emission values for each well was calculated and % Inhibition determined from averaged controls wells (+/−PI3K enzyme). % Inhibition values for each compound were then plotted against inhibitor concentration to estimate IC50 from log [Inhibitor] vs Response, Variable Slope model in GraphPad Prism from GraphPad Software (San Diego, Calif.).

Another assay deals with PI3K. Kind of assay: PI3K HCT116 cellular assay (Western blot). The class given is cell-based. The conditions noted are these: Homo sapiens, HCT-116, HCT116 colon cancer cells, 1 hour incubation, read-out: PI3K Inhibition. Here is the method: PI3K HCT116 Cellular Assay
Selected compounds were assayed in HCT116 colon cancer cells. […] Cells were then washed with PBS, lysed and the protein lysates were then recovered and analyzed by Western blot.
Background: Immunoblotting shows a protein as a band on a membrane.

In assay [2] the target is T3, PI3Kα. Nature of the assay: Mass spectrometry of intact PI3Kα (Millipore, 14-602), 1 hr incubation. Format: binding. Details: purchased Millipore 14-602. The conditions noted are these: 10× fold excess of compound, MALDI. Here is the method:
as §1
Target sequence in this assay (P42336 whole entry): as the sequence (P42336 whole entry) above
Target sequence in this assay (P27986 whole entry partner): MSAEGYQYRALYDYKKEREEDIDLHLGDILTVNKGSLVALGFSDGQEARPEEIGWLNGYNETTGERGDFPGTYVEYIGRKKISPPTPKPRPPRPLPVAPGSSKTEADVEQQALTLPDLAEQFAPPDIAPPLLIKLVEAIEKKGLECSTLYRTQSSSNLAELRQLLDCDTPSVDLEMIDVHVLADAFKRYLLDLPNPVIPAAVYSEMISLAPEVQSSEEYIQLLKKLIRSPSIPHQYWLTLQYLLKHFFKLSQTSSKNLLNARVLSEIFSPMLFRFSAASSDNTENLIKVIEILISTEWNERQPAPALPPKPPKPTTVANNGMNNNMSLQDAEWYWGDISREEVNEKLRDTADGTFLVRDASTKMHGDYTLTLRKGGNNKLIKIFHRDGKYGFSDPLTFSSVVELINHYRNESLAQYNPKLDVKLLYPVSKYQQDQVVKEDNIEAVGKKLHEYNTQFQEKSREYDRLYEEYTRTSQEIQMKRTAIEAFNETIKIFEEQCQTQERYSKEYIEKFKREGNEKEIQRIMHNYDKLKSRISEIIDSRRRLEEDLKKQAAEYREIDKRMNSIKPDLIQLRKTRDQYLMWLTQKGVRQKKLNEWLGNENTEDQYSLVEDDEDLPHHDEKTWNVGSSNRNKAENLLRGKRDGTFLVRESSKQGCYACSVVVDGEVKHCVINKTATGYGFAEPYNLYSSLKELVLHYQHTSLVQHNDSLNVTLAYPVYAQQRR
Aliquots (5 μl) of the samples were diluted with 15 μl of 0.2% TFA prior to micro C4 ZipTipping directly onto the MALDI target using Sinapinic acid as the desorption matrix (10 mg/ml in 0.1% TFA:Acetonitrile 50:50).

“Also recorded” adds a separate entry of the source.

T2 sequence (P48736 whole entry): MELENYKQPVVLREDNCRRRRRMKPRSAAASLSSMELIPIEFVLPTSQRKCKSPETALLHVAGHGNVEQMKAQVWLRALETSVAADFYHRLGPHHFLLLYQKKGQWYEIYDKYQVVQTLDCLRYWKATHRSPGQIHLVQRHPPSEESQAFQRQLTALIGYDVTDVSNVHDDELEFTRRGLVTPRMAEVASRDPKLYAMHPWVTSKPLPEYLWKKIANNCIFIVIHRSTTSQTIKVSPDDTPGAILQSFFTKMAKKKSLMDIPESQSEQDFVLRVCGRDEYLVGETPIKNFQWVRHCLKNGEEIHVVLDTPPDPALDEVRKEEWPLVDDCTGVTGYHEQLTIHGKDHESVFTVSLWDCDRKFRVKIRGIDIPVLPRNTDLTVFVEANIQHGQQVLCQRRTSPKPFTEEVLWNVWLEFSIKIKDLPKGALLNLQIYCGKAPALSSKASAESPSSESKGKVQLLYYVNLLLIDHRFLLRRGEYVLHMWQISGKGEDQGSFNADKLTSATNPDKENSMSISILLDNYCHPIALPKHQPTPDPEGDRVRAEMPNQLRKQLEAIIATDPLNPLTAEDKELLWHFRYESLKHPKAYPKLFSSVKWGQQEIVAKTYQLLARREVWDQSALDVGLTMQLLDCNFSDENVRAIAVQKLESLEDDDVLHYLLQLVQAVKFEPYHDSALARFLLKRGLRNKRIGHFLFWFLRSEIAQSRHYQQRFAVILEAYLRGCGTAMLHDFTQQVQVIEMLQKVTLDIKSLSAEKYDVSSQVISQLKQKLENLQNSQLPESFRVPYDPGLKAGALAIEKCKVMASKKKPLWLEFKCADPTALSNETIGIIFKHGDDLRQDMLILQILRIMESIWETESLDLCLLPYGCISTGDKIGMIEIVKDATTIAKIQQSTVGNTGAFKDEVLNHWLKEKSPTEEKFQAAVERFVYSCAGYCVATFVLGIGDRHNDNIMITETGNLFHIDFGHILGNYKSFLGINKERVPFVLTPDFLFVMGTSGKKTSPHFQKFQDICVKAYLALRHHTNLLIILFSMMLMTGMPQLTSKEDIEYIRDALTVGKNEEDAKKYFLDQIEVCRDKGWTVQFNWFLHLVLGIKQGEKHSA
T1 sequence (P42336 whole entry): as the sequence (P42336 whole entry) above
T1 sequence (P27986 whole entry partner): as the sequence (P27986 whole entry partner) above
T4 sequence (P42338 whole entry): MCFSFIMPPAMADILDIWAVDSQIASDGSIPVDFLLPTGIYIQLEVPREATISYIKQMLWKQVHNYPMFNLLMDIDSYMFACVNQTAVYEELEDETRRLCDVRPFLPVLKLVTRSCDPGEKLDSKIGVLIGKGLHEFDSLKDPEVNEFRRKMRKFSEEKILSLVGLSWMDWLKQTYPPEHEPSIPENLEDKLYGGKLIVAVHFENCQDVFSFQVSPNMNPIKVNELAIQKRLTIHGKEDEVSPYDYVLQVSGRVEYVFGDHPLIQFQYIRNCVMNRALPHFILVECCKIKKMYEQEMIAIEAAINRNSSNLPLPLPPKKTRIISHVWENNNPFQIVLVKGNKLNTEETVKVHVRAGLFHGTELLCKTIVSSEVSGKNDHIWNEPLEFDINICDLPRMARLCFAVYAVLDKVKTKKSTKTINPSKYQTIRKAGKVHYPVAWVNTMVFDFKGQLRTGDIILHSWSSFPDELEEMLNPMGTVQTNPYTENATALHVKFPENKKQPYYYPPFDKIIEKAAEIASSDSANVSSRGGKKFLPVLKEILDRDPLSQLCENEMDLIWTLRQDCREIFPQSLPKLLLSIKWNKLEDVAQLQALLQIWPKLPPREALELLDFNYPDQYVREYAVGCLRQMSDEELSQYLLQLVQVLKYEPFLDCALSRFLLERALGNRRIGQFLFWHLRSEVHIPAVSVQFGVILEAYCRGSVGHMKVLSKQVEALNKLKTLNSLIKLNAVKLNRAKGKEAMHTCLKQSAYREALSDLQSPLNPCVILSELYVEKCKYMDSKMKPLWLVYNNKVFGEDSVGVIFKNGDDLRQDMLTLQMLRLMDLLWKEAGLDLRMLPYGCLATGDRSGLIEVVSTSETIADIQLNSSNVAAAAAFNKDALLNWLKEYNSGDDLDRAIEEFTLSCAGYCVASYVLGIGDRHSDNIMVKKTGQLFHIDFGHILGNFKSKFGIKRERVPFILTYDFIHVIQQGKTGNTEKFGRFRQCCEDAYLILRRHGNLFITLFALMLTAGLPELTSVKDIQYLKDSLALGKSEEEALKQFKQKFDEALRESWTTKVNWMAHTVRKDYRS
T4 sequence (P27986 whole entry partner): as the sequence (P27986 whole entry partner) above

As a reminder, the GI50 is the concentration that inhibits growth by half. Consider `C=CC(=O)Nc1ccc(C(=O)N2CC=C(c3cc4nc(-c5cnc(N)nc5)cc(N5CCOCC5)c4s3)CC2)cc1` [II-g-2, N-(4-(4-(5-(2-aminopyrimidin-5-yl)-7-morpholinothieno[3,2-b]pyridin-2-yl)-1,2,3,6-tetrahydropyridine-1-carbonyl)phenyl)acrylamide], for which the IC50 at PI3Kα (p110α/p85α) and at PI3Kγ (p120γ) was 100 to 1000 nM each time. The EC50 with Phospho-Akt(Ser473) is at most 10 nM. Moreover, the concentration for 50% growth inhibition (GI50) in the assay on SKOV3 cells lay in the range of 100 to 1000 nM.

For `CC(C)/C=C/C(=O)CCC(=O)N1CCN(Cc2cc3nc(-c4cccc5[nH]ncc45)nc(N4CCOCC4)c3s2)CC1` [II-a-54, (E)-1-(4-((2-(1H-indazol-4-yl)-4-morpholinothieno[3,2-d]pyrimidin-6-yl)methyl)piperazin-1-yl)-7-methyloct-5-ene-1,4-dione], the IC50 at PI3Kα (p110α/p85α) is 10 to 100 nM; on PI3Kγ (p120γ), over 1000 nM. Also, the “covalent modification of PI3Kα” value on PI3Kα [1] was “completely modify”.

As to `CC(C)=CC(=O)CCCC(=O)N1CC=C(c2cc3nc(-c4cnc(N)nc4)nc(C4=CCOCC4)c3s2)CC1` [II-a-169], the IC50 on PI3Kα (p110α/p85α) is 10 to 100 nM; at PI3Kγ (p120γ) it was 100 to 1000 nM; on PI3Kβ (p110β/p85α), over 1000 nM.

For `C/C=C/C(=O)CCC(=O)NCC(=O)N1CCN(Cc2cc3nc(-c4cccc5[nH]ncc45)nc(N4CCOCC4)c3s2)CC1` [II-a-16, (E)-N-(2-(4-((2-(1H-indazol-4-yl)-4-morpholinothieno[3,2-d]pyrimidin-6-yl)methyl)piperazin-1-yl)-2-oxoethyl)-4-oxohept-5-enamide], the IC50 on PI3Kα (p110α/p85α) is under 10 nM; at PI3Kγ (p120γ) it was over 1000 nM. Moreover, the “times more potent than its reversible counterpart II^R-a-16” value on PI3Kα (p110α/p85α) (PI3Kα HTRF assay) is reported as “about 35 times”. In addition, the “covalent modification of PI3Kα” value at PI3Kα [1] is on record as “completely modify”. Besides, the EC50 with PI3K was 100 to 500 nM.

As to `C=CC(=O)Nc1ccc(CC(=O)N2CCN(c3cc(-c4cnc(N)nc4)nc(N4CCOCC4)c3)CC2)cc1` [XII-54], the IC50 on PI3Kα (p110α/p85α) was in the range of 100 to 1000 nM. Moreover, the EC50 in the assay with Phospho-Akt(Ser473) lay within 100 to 1000 nM. On PI3Kα [2], the “covalent modification of PI3Kα” value is listed as “covalent modification”; the “mass shift of PI3Kα” value is on record as 542 Da; the “mass shift of PI3Kα, per cent in brackets” value was determined as 103%.

For `C=CC(=O)Nc1ccc(C(=O)N2CCC3(CC2)CN(c2cc(-c4cnc(N)nc4)nc(N4CCOCC4)c2)C3)cc1` [XII-52, N-(4-(2-(2-(2-aminopyrimidin-5-yl)-6-morpholinopyridin-4-yl)-2,7-diazaspiro[3.5]nonane-7-carbonyl)phenyl)acrylamide], the IC50 on PI3Kα (p110α/p85α) lay in the range of 100 to 1000 nM. For the same compound, the EC50 in the assay on Phospho-Akt(Ser473) was 100 to 1000 nM. Further, on PI3Kα [2], the “covalent modification of PI3Kα” value is reported as “similarly modify”.

For the compound `CC(C)=CC(=O)c1ccc(CCNC(=O)c2cc(-c3cnc(N)nc3C)nc(N3CCOCC3)c2)cc1` [XII-15, 2-(2-amino-4-methylpyrimidin-5-yl)-N-(4-(3-methylbut-2-enoyl)phenethyl)-6-morpholinoisonicotinamide], on PI3Kα (p110α/p85α), the IC50 lay within 100 to 1000 nM. In addition, the “covalent modification of PI3Kα” value on PI3Kα [2] is recorded as “similarly modify”.

Regarding `CC(C)=CC(=O)CCc1ccc(C#Cc2cc(-c3cnc(N)nc3C)nc(N3CCOCC3)c2)cc1` [XII-18, 1-(4-((2-(2-amino-4-methylpyrimidin-5-yl)-6-morpholinopyridin-4-yl)ethynyl)phenyl)-5-methylhex-4-en-3-one], the IC50 on PI3Kα (p110α/p85α) is over 1000 nM. Also, the “covalent modification of PI3Kα” value on PI3Kα [2] is “similarly modify”.

Regarding `C/C=C/C(=O)CCC(=O)NCC(=O)N1CCN(Cc2cc3nc(-c4cccc(O)c4)nc(N4CCOCC4)c3s2)CC1` [II-a-37, (E)-N-(2-(4-((2-(3-hydroxyphenyl)-4-morpholinothieno[3,2-d]pyrimidin-6-yl)methyl)piperazin-1-yl)-2-oxoethyl)-4-oxohept-5-enamide], the IC50 at PI3Kα (p110α/p85α) was under 10 nM; at PI3Kγ (p120γ) it was over 1000 nM. The EC50 in the assay with Phospho-Akt(Ser473) fell in the range of 100 to 1000 nM; in the assay on PI3K, 20 to 100 nM. Further, the “covalent modification of PI3Kα” value at PI3Kα [1] is on record as “completely modify”.

For the compound `C=C(C)C(=O)CCC(=O)NCC(=O)N1CCN(Cc2cc3nc(-c4cccc5[nH]ncc45)nc(N4CCOCC4)c3s2)CC1` [II-a-33, N-(2-(4-((2-(1H-indazol-4-yl)-4-morpholinothieno[3,2-d]pyrimidin-6-yl)methyl)piperazin-1-yl)-2-oxoethyl)-5-methyl-4-oxohex-5-enamide], the IC50 on PI3Kα (p110α/p85α) was 10 to 100 nM; at PI3Kγ (p120γ), over 1000 nM. On PI3Kα [1], the “covalent modification of PI3Kα” value is reported as “completely modify”. Moreover, in the assay with PI3K, the EC50 lay in the range of 20 to 100 nM.

Regarding `C/C=C/C(=O)CCC(=O)N1CC=C(c2cc3nc(-c4cccc(O)c4)nc(N4CCOCC4)c3s2)CC1` [II-a-45, (E)-1-(4-(2-(3-hydroxyphenyl)-4-morpholinothieno[3,2-d]pyrimidin-6-yl)-5,6-dihydropyridin-1(2H)-yl)hept-5-ene-1,4-dione], the figures for the IC50 on PI3Kα (p110α/p85α) and on PI3Kγ (p120γ) were under 10 nM and 100 to 1000 nM, respectively. Also, the EC50 in the assay on Phospho-Akt(Ser473) is at most 10 nM; with PI3K it was 100 to 500 nM. At PI3Kα [1], the “covalent modification of PI3Kα” value was “covalent modification; also recorded: complete modification”. The “positive mass shift of PI3Kα” value on PI3Kα [1] is 563 Da.

Consider `C=CC(=O)Nc1ccc(CC(=O)N2CC=C(c3cc(-c4cnc(N)nc4)nc(N4CCOCC4)c3)CC2)cc1` [XII-51, N-(4-(2-(4-(2-(2-aminopyrimidin-5-yl)-6-morpholinopyridin-4-yl)-5,6-dihydropyridin-1(2H)-yl)-2-oxoethyl)phenyl)acrylamide], for which the IC50 at PI3Kα (p110α/p85α) lay in the range of 10 to 100 nM. Besides, the EC50 with Phospho-Akt(Ser473) lay in the range of 10 to 100 nM. On PI3Kα [2], the “covalent modification of PI3Kα” value was “similarly modify”.

Turning to `CC(C)=CC(=O)CCC(=O)N1CC2(CCN(c3cc(-c4cnc(N)nc4)nc(N4CCOCC4)c3)CC2)C1` [XII-42, 1-(7-(2-(2-aminopyrimidin-5-yl)-6-morpholinopyridin-4-yl)-2,7-diazaspiro[3.5]nonan-2-yl)-6-methylhept-5-ene-1,4-dione], the IC50 on PI3Kα (p110α/p85α) is over 1000 nM. For the same compound, in the assay with Phospho-Akt(Ser473), the EC50 was 100 to 1000 nM. For the same compound, the “covalent modification of PI3Kα” value on PI3Kα [2] is listed as “similarly modify”.
